The values below come from patent publication US4363922A, “Esters of antibiotic nodusmicin” (priority 1981, dated 1982).

Data set [1] has as its system S.lutea UC-130. Description: Dipped disc agar diffusion assay, S. lutea. The settings on record: for zone of inhibition at 1000 µg/mL: Micrococcus luteus, UC130, 16 h, read-out: Agar Diffusion 1 mg./ml. S.lutea UC-130 (inhibition zone). A general note: In agar diffusion tests the substance spreads into inoculated agar from a disc or well.
For data set [2], the system named is S.aureus UC-76. Description: Minimum Inhibitory Concentration, microplate broth-dilution, S. aureus UC-76. The settings on record: for MIC: Staphylococcus aureus.
Data set [3] deals with S.aureus UC-570. Description: Minimum Inhibitory Concentration, microplate broth-dilution, S. aureus UC-570. The conditions noted are these: for MIC: Staphylococcus aureus.
In data set [4] the test system is S.aureus UC-746. Description: Minimum Inhibitory Concentration, microplate broth-dilution, S. aureus UC-746. The conditions noted are these: for MIC: Staphylococcus aureus.
Data set [5] deals with S.pyrogenes UC-152. Description: Minimum Inhibitory Concentration, microplate broth-dilution, S. pyrogenes UC-152.
In data set [6] the test system is S.aureus UC 80. Put plainly: Dipped disc agar diffusion assay, S. aureus. The conditions noted are these: for zone of inhibition at 1000 µg/mL: Staphylococcus aureus, UC80, 16 h.
Data set [7] is described as follows: Solubility noted in the MIC determination. The conditions noted are these: BHI broth.
Setting [8] is: UC76, read-out: MIC S.aureus UC-76.
[9] abbreviates: UC570, read-out: MIC S.aureus UC-570.
[10] abbreviates: UC746, read-out: MIC S.aureus UC-746.
[11] abbreviates: read-out: MIC S.pyrogenes UC-152.
The mark [12] stands for this setting: read-out: Agar Diffusion 1 mg./ml. S.aureus UC 80 (inhibition zone).
Setting [13] is: read-out: Agar Diffusion 1 mg./ml. S.aureus UC 80 (inhibition zone), 1 mg./ml., 12.7 mm paper disc, 16 hours.
The mark [14] stands for this setting: UC76, read-out: MIC S.aureus UC-76, BHI broth, sensitive strain.
Setting [15] is: UC570, read-out: MIC S.aureus UC-570, BHI broth, sensitive strain.
Setting [16] is: UC746, read-out: MIC S.aureus UC-746, BHI broth, strain resistant to tetracycline.
[17] abbreviates: read-out: MIC S.pyrogenes UC-152, BHI broth.
The mark [18] stands for this setting: 1 mg./ml., 12.7 mm paper disc, 16 hours.

Converted amounts (≈) assume the structure as drawn. Like-named read-outs stand apart in the source and are kept apart here.

As for `COC1CC2C=CC3C4OC2(C(C)=CC(C)C(C(C)O)OC1=O)C3C(O)C(C)C4OC(=O)c1ccccn1` (stereo not shown) [U-60,909, 9-O--Picolinoyl-], the zone of inhibition at 1000 µg/mL in data set [1] was found to be 31 mm. Besides, the MIC in data set [2] (setting [8]), in data set [3] (setting [9]), in data set [4] (setting [10]) and in data set [5] (setting [11]) was over 250 µg/mL each time.

As for `COC1CC2C=CC3C4OC2(C(C)=CC(C)C(C(C)O)OC1=O)C3C(O)C(C)C4OC(=O)c1ccc([N+](=O)[O-])o1` (stereo not shown) [U-60,990, 9-O--5-Nitrofuroyl], the zone of inhibition at 1000 µg/mL in data set [1] is 33 mm. Moreover, the MIC (as a rule, the least concentration at which growth counts as inhibited) in data set [2] (setting [8]) worked out at 31.2 µg/mL (≈ 55.6 µM); in data set [3] (setting [9]), 31.2 µg/mL (≈ 55.6 µM); in data set [4] (setting [10]), 62.5 µg/mL (≈ 111 µM); in data set [5] (setting [11]) it was 125 µg/mL (≈ 223 µM).

On to `COC1CC2C=CC3C4OC2(C(C)=CC(C)C(C(C)O)OC1=O)C3C(O)C(C)C4OC(=O)c1ccco1` (stereo not shown) [U-60,898, 9-O--Furoyl-], for which the zone of inhibition at 1000 µg/mL is 40 mm in data set [1] and 30 mm in data set [6] (setting [12]). For the same compound, the MIC in data set [2] (setting [8]) is 7.8 µg/mL (≈ 15.1 µM); in data set [3] (setting [9]) it was 7.8 µg/mL (≈ 15.1 µM); in data set [4] (setting [10]) it was 7.8 µg/mL (≈ 15.1 µM); in data set [5] (setting [11]), over 250 µg/mL.

In the case of `COC1CC2C=CC3C4OC2(C(C)=CC(C)C(C(C)O)OC1=O)C3C(O)C(C)C4OC(=O)c1cc([N+](=O)[O-])c[nH]1` (stereo not shown) [U-61,462, 9-O--4-Nitropyrrole-2-carbonyl-], the zone of inhibition at 1000 µg/mL in data set [1] was 36 mm; in data set [6] (setting [13]), 20 mm. Moreover, the MIC in data set [2] (setting [14]) was 15.6 µg/mL (≈ 27.8 µM); in data set [3] (setting [15]), 31.2 µg/mL (≈ 55.7 µM); in data set [4] (setting [16]), 31.2 µg/mL (≈ 55.7 µM); in data set [5] (setting [17]), 125 µg/mL (≈ 223 µM).

As for 9-O--3-Furoyl- [U-61,461], the “Agar Diffusion 1 mg./ml. S.lutea UC-130 (inhibition zone)” value in data set [1] (setting [18]) worked out at 41. Besides, the “Agar Diffusion 1 mg./ml. S.aureus UC 80 (inhibition zone)” value in data set [6] (setting [18]) is 35. Also, the “MIC S.aureus UC-76” value in data set [2] (BHI broth, sensitive strain) was determined as 0.50 µg/mL. Further, the “MIC S.aureus UC-570” value in data set [3] (BHI broth, sensitive strain) was 0.25 µg/mL. Besides, the “MIC S.aureus UC-746” value in data set [4] (BHI broth, strain resistant to tetracycline) was 0.50 µg/mL. In addition, the “MIC S.pyrogenes UC-152” value in data set [5] (BHI broth) was determined as 2.50 µg/mL.

As for `COC1CC2C=CC3C4OC2(C(C)=CC(C)C(C(C)O)OC1=O)C3C(O)C(C)C4OC(=O)c1ccc(C)[nH]1` (stereo not shown) [U-61,265, 9-O--5-Methylpyrrole-2-carbonyl], the values for the zone of inhibition at 1000 µg/mL in data set [1] and in data set [6] (setting [12]) were 30 mm and 20 mm, respectively. The MIC was found to be 31.2 µg/mL (≈ 58.9 µM) in data set [2] (setting [8]), 31.2 µg/mL (≈ 58.9 µM) in data set [3] (setting [9]), 31.2 µg/mL (≈ 58.9 µM) in data set [4] (setting [10]) and 125 µg/mL (≈ 236 µM) in data set [5] (setting [11]).

For `COC1CC2C=CC3C4OC2(C(C)=CC(C)C(C(C)OC(=O)c2ccc[nH]2)OC1=O)C3C(O)C(C)C4OC(=O)c1ccc[nH]1` (stereo not shown) [U-60,908, 9,18-O--Dipyrrole-2-carbonyl-], the “insoluble” value in data set [7] is reported as “insoluble”. Further, the zone of inhibition at 1000 µg/mL in data set [1] amounted to 29 mm; in data set [6] (setting [13]), 24 mm.

Consider `COC1CC2C=CC3C4OC2(C(C)=CC(C)C(C(C)O)OC1=O)C3C(O)C(C)C4OC(=O)c1cccs1` (stereo not shown) [U-60,989, 9-O--Thiophene-2-carbonyl-], for which the zone of inhibition at 1000 µg/mL was 41 mm in data set [1] and 27 mm in data set [6] (setting [12]). For the same compound, the MIC in data set [2] (setting [8]) was found to be 3.9 µg/mL (≈ 7.32 µM); in data set [3] (setting [9]), 3.9 µg/mL (≈ 7.32 µM); in data set [4] (setting [10]), 3.9 µg/mL (≈ 7.32 µM); in data set [5] (setting [11]), 125 µg/mL (≈ 235 µM).

For `COC1CC2C=CC3C4OC2(C(C)=CC(C)C(C(C)O)OC1=O)C3C(O)C(C)C4OC(=O)c1cnccn1` (stereo not shown) [U-61,264, 9-O--Pyrrazine-2-carbonyl], the zone of inhibition at 1000 µg/mL in data set [1] stood at 27 mm. For the same compound, the MIC in data set [2] (setting [8]), in data set [3] (setting [9]), in data set [4] (setting [10]) and in data set [5] (setting [11]) was over 125 µg/mL each time.

For the compound `COC1CC2C=CC3C4OC2(C(C)=CC(C)C(C(C)O)OC1=O)C3C(O)C(C)C4OC(=O)c1ccc(Br)o1` (stereo not shown) [U-61,463, 9-O--5-Bromofuroyl-], the zone of inhibition at 1000 µg/mL is 35 mm in data set [1] and 0 mm in data set [6] (setting [12]).

As to `COC1CC2C=CC3C4OC2(C(C)=CC(C)C(C(C)O)OC1=O)C3C(O)C(C)C4OC(=O)c1ccc([N+](=O)[O-])[nH]1` (stereo not shown) [U-61,427, 9-O--5-Nitropyrrole-2-carbonyl-], the zone of inhibition at 1000 µg/mL in data set [1] was 32 mm. Besides, the MIC in data set [2] (setting [14]) was found to be 125 µg/mL (≈ 223 µM); in data set [3] (setting [15]) it was 250 µg/mL (≈ 446 µM); in data set [4] (setting [16]) it was 125 µg/mL (≈ 223 µM); in data set [5] (setting [17]), 250 µg/mL (≈ 446 µM).
